# Laboratory results as given in patent US7435837B2, “Dihydrobenzofuranyl alkanamine derivatives and methods for using same” (Wyeth, priority 2003, dated 2008).
# How the values were obtained:
# [1] = target: T1, human 5-hydroxytryptamine-2C (h5-HT2C) receptor (Homo sapiens, UniProt P28335); test: [125I]DOI binding to membranes of CHO cells expressing the human 5-HT2C receptor; details: [125I]DOI radioligand, CHO cell membranes, room temperature 60 min; read-out: 5-HT2C Affinity Ki
# T1 construct: expressed in transfected cells; host or cells: CHO (Chinese Hamster Ovary) cells; membranes
# T1 sequence (P28335 33-458): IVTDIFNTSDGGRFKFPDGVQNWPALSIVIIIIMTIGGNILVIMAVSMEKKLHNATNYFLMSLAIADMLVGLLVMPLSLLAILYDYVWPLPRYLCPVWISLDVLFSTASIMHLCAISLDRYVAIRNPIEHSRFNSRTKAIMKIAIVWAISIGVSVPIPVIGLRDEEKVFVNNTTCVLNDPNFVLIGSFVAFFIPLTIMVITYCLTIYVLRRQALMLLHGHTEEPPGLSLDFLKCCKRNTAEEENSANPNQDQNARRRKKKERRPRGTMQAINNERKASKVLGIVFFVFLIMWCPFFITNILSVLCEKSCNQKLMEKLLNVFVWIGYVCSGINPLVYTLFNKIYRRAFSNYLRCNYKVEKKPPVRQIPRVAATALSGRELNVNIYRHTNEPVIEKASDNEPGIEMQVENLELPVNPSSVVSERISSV
# human 5-HT2C receptor = target: T2, human 5-HT2C receptor (Homo sapiens, UniProt P28335); test: 5-HT2C receptor-stimulated calcium mobilization (FLIPR) in CHO cells; format: cell-based; details: for Emax: CHO, read-out: 5-HT2C Function Emax (%); for Emax / 5-HT2C Function Emax (%): percentage of the response observed with a maximally effective concentration of 5-HT; for EC50: calcium mobilization, CHO cells stably expressing human 5-HT2C, read-out: 5-HT2C Function EC50;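 on all read-outs here: Fluo-3-AM fluorescence read on FLIPR every 1 s, agonist added after 10 baseline reads, response taken as peak minus lowest raw fluorescence count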
# T2 sequence (P28335 33-458): T1 sequence (P28335 33-458)
Ki [1] [nM],Emax (human 5-HT2C receptor) [%],EC50 (human 5-HT2C receptor) [nM],5-HT2C Function Emax (%) (human 5-HT2C receptor),SMILES
86,80,256,–,"CNCC1Cc2cc(OC)cc(-c3cc(C)ccc3C)c2O1 (racemic) [Example 500, (±)-{[7-(2,5-dimethylphenyl)-5-methoxy-2,3-dihydro-1-benzofuran-2-yl]methyl}methylamine]"
6.1,70,28,–,"CNCC1Cc2cccc(-c3cccc(OC)c3OC)c2O1 (racemic) [Example 423, (±)-[(N-methyl-1-[7-(2,3-dimethoxyphenyl)-2,3-dihydro-1-benzofuran-2-yl]methanamine]"
5,80,58,–,"CNCC1Cc2cc(C)cc(-c3ccc(OC)cc3)c2O1 (racemic) [Example 483, (±)-{[7-(4-methoxyphenyl)-5-methyl-2,3-dihydro-1-benzofuran-2-yl]methyl}methylamine]"
24,90,16,–,"CNCC1Cc2cc(F)cc(-c3cccnc3)c2O1 (racemic) [Example 459, (±)-[(5-fluoro-7-pyridin-3-yl-2,3-dihydro-1-benzofuran-2-yl)methyl]methylamine]"
24,80,153,–,"CNCC1Cc2cc(F)cc(-c3cc(C)ccc3C)c2O1 (racemic) [Example 452, (±)-{[7-(2,5-dimethylphenyl)-5-fluoro-2,3-dihydro-1-benzofuran-2-yl]methyl}methylamine]"
41,70,2,–,"COc1cc2c(c(-c3ccccc3OC)c1)OC(CCN)C2 (racemic) [Example 554, (±)-{2-[7-(2-methoxyphenyl)-5-methoxy-2,3-dihydro-1-benzofuran-2-yl]ethyl}amine]"
61,–,–,–,"CNCC1Cc2cc(C(F)(F)F)cc(-c3cc(F)ccc3F)c2O1 (racemic) [Example 523, (±)-N-methyl-1-[7-(2,5-difluorophenyl)-5-(trifluoromethyl)-2,3-dihydro-1-benzofuran-2-yl]methanamine]"
1090,–,–,–,"CNCC1Cc2cc(-c3cccc(F)c3)cc(F)c2O1 (racemic) [Example 535, (±)-{[7-fluoro-5-(3-fluorophenyl)-2,3-dihydro-1-benzofuran-2-yl]methyl}methylamine]"
209,–,–,–,"CNCC1Cc2cc(-c3ccc(Cl)cc3)cc(F)c2O1 (racemic) [Example 539, (±)-{7-fluoro-5-[4-chlorophenyl]-2,3-dihydro-1-benzofuran-2-yl}methyl)methylamine]"

# Further lines, the molecule ahead of its results:
SMILES,Ki [1] [nM],Emax (human 5-HT2C receptor) [%],EC50 (human 5-HT2C receptor) [nM],5-HT2C Function Emax (%) (human 5-HT2C receptor)
"COc1ccc(C)c(-c2cc(F)cc3c2OC(CN)C3)c1 (racemic) [Example 224, (±)-{[5-fluoro-7-(5-methoxy-2-methylphenyl)-2,3-dihydro-1-benzofuran-2-yl]methyl}amine]",18,70,455,–
"CNCC1Cc2cccc(-c3cccc(F)c3)c2O1 (racemic) [Example 415, (±)-[(N-methyl-1-[7-(3-fluorophenyl)-2,3-dihydro-1-benzofuran-2-yl]methanamine]",1.1,70,109,–
"Cc1cccc(C)c1-c1cc(F)cc2c1OC(CN)C2 (racemic) [Example 227, (±)-{[7-(2,6-dimethylphenyl)-5-fluoro-2,3-dihydro-1-benzofuran-2-yl]methyl}amine]",1.5,95,3,–
"Cc1cccc(C)c1-c1cccc2c1CC(CN)O2 (single isomer, unassigned; (+)) [Example 126, (+)-1-[4-(2,6-dimethylphenyl)-2,3-dihydro-1-benzofuran-2-yl]methanamine]",17,40,2720,–
"COc1cc2c(c(-c3cccc(F)c3F)c1)OC(CN)C2 (racemic) [Example 361, (±)-{[7-(2,3-difluorophenyl)-5-methoxy-2,3-dihydro-1-benzofuran-2-yl]methyl}amine]",33,90,73,–
"NCC1Cc2cccc(-c3cccc(Cl)c3)c2O1 (single isomer, unassigned; (-)) [Example 67, (−)-1-[7-(3-chlorophenyl)-2,3-dihydro-1-benzofuran-2-yl]methanamine]",83,–,5760,70
"Cc1c(Cl)cc(C(C)C)c2c1CC(CN)O2 (racemic) [Example 21, (±)-1-(5-chloro-7-isopropyl-4-methyl-2,3-dihydro-1-benzofuran-2-yl)methanamine]",9,85,86,–
"Cc1cc2c(c(-c3ccc(Cl)cc3Cl)c1)OC(CN)C2 (racemic) [Example 297, (±)-{[7-(2,4-dichlorophenyl)-5-methyl-2,3-dihydro-1-benzofuran-2-yl]methyl}amine]",0.56,100,0.73,–
"Cc1ccc(-c2cccc3c2OC(CN)C3)cc1 (single isomer, unassigned; (+)) [Example 71, (+)-1-[7-(4-methylphenyl)-2,3-dihydro-1-benzofuran-2-yl]methanamine]",1,100,1.4,–
"NCC1Cc2ccc(F)c(-c3ccccc3Cl)c2O1 (racemic) [Example 398, (±)-{[7-(2-chlorophenyl)-6-fluoro-2,3-dihydro-1-benzofuran-2-yl]methyl}amine]",0.04,100,0.1,–
"COc1cc2c(c(-c3cc(C)ccc3C)c1)OC(CN)C2 (racemic) [Example 370, (±)-{[7-(2,5-dimethylphenyl)-5-methoxy-2,3-dihydro-1-benzofuran-2-yl]methyl}amine]",30,80,190,–
"Cc1ccccc1-c1cc(Cl)cc2c1OC(CN)C2 (single isomer, unassigned; (-)) [Example 97, (−)-1-[5-chloro-7-(2-methylphenyl)-2,3-dihydro-1-benzofuran-2-yl]methanamine]",4,–,577,60
"NCC1Cc2cccc(-c3ccc(F)cc3)c2O1 (single isomer, unassigned; (+)) [Example 74, (+)-1-[7-(4-fluorophenyl)-2,3-dihydro-1-benzofuran-2-yl]methanamine]",3,100,11,–
"NCC1Cc2cccc(C3CCCC3)c2O1 (single isomer, unassigned; (+)) [Example 10, (+)-(7-cyclopentyl-2,3-dihydro-1-benzofuran-2-yl)methylamine]",42,–,179,60
"CCc1cc2c(c(-c3ccccc3Cl)c1)OC(CN)C2 (racemic) [Example 306, (±)-{[5-ethyl-7-(2-chlorophenyl)-2,3-dihydro-1-benzofuran-2-yl]methyl}amine]",0.58,100,0.64,–
"NCC1Cc2cccc(-c3ccc(Cl)cc3)c2O1 (single isomer, unassigned; (-)) [Example 78, (−)-1-[7-(4-chlorophenyl)-2,3-dihydro-1-benzofuran-2-yl]methanamine]",41,–,161,90
"NCC1Cc2cc(Cl)cc(-c3cccc(Cl)c3)c2O1 (racemic) [Example 89, (±)-1-[5-chloro-7-(3-chlorophenyl)-2,3-dihydro-1-benzofuran-2-yl]methanamine]",40,–,–,–
